Measured values from US4487763A, “Peptide, process for preparation thereof and use thereof” (Fujisawa Pharmaceutical Co., Ltd., priority 1979, dated 1984).

Experiments:
[1] = test system: Mice (DDY male 5-6 W); experiment: Blood stream clearance of carbon; type: in vivo; details: carbon clearance measured 24 hours later
Protocol: 1. Carbon suspension. Rotoring drawing ink (170 mg carbon/ml.) was diluted to 1/5 of the original concentration in saline containing 1% gelatin. 2. 0.1% aqueous sodium carbonate solution. Mice (DDY male 5-6 W) were injected via the tail vein with a dose of 0.01 ml/g body weight of carbon. Blood samples were taken by means of a pointed capillary […] calibrated to hold a 50 μl and previously washed in heparin. This was plunged into the retroorbital venous sinus at the nasal angle of the eye. The samples were removed at 3 and 6 min. The blood was immediately discharged into 3.0 ml. of the sodium carbonate solution. This hemolyzed the blood and allowed the quantitation of carbon. The samples were then read in a spectrophotometer at 660 nm, the log concentration being obtained from a previously determined standard curve. The clearance value K may be determined by plotting log carbon concentration against time according to the following relationship; [formula] in which T1 and T2 represent the time in min when the sample were withdrawn and C1 and C2 represent the concentrations of carbon in the blood at the time T1 and T2, respectively. The aqueous solution of the drug as given was administered subcutaneously to mice. Twenty four hours later, blood stream clearance of carbon was measured. K value obtained with treated mice was compared with that of control mice.

[2] = test system: E. coli 22; experiment: Protective efficacy in experimental infection in mice; type: in vivo; details: male ICR mice, survival after four days
Protocol: In determining the protective efficacy against experimental infections in mice, the test compound was dissolved in and diluted with sterile saline to provide prescribed concentrations of drug.
Male ICR-strain mice, aged 4 weeks were used in groups of ten mice. E. coli 22 was cultivated overnight at 37° C. on trypticase soy agar and then were suspended in a sterile saline to obtain microbial cell concentration of 9.0×10^7 CFU/ml. Mice were inoculated intraperitoneally with 0.2 ml of the suspension. Each of the test drugs was given intraperitoneally in various doses to a group of ten mice 24 hours before challenge.
Survival percent were found from the number of the surviving animals after four days of injection.

Substance: D-Lac-L-Ala-γ-D-Glu(α-OH)-(L)-[D-Lac-L-Ala-γ-D-Glu(α-OH)-(L)-mesoDAP-(D)-Gly]-(D)-mesoDAP-(L)-GlyOH [Example 13 (Step 2)]
- K treated/K control ([1]; dose 1 mg/mouse subcutaneously): 0.6
- K treated/K control ([1]; dose 100 mg/mouse subcutaneously): 1.6
- Survival (%) ([2]; dose 1 mg/kg intraperitoneally 24 hours before challenge): 100%
- Survival (%) ([2]; dose 10 mg/kg intraperitoneally 24 hours before challenge): 100%
